Results on eight molecules are retold here after publication PMC9609924, “In Vitro Characterization of Inhibitors for Lung A549 and Leukemia K562 Cell Lines from Fungal Transformation of Arecoline Supported by In Silico Docking to M3-mAChR and ADME Prediction” (Pharmaceuticals, 2022).

Structures can show the parent of a compound that is named as a salt. Where two headings read alike, the source gives them in different places.

In one assay the test system is leukemia K562 cell line. Put plainly: MTT cytotoxicity assay, leukemia K562. The following applies: Homo sapiens, K562, 48 h, read-out: Cytotoxicity IC50 ± SD, Leukemia Cancer Cell K562. On the procedure:
(§1) Cell lines were obtained from the American Type Culture Collection (ATCC). Cells were cultured using Dulbecco’s Modified Eagle’s Medium (DMEM) (Invitrogen/Life Technologies, Waltham, MA, USA) supplemented with 10% fetal bovine serum (FBS, Hyclone, Logan, UT, USA), 10 µg/mL of insulin (Sigma Aldrich, St. Louis, MO, USA) and 1% mixture of penicillin and streptomycin. After incubation for 48 h with the isolated compounds, the viability of cells was measured using an MTT assay to determine the toxic concentration for each compound using the microplate reader according to the published procedures.
A general note: Formazan colour is commonly taken as a measure of viable cells.

In assay [1] the test system is non-small-cell lung cancer A549 cell line. Nature of the assay: cells. To be noted: Homo sapiens, A549, 48 h, read-out: Cytotoxicity IC50 ± SD, Non-Small-Cell Lung Cancer A549. On the procedure:
as §1

The subject of assay [2] is normal blood cell PCS-800-016. Put plainly: MTT cytotoxicity assay, normal blood cell PCS-800-016. The following applies: for IC50: read-out: Normal Blood Cell PCS-800-016 IC50 ± SD. In kind it is cell-based. As to the method: (§2) The selectivity index identifies the selectivity of the tested compounds toward the cancer cell line and is calculated by dividing the IC50 against the normal cell line by the IC50 against the cancer cells.

For another assay, the system named is normal lung cell WI38. Put plainly: MTT cytotoxicity assay, normal lung cell WI38. In kind it is cell-based. To be noted: for IC50: Homo sapiens, read-out: Normal Lung Cell Line WI38 IC50 ± SD. As to the method:
as §2

In assay [3] the test system is non-small-cell lung cancer A549 cells. Put plainly: Flow cytometry of DNA content, cell cycle distribution, A549. In kind it is cell-based. On the procedure:
(§3) Furthermore, compound 1 induced early and late apoptosis and necrosis (5.09%, 10.38%, and 13.14%, respectively) compared to the untreated cells (0.29%, 0.18%, and 0.79, respectively).
(§4) For cell cycle analysis, a propidium iodide flow cytometry kit (ab139418, Abcam, Cambridge, UK) was used. For apoptosis, we used an annexin V apoptosis kit, which is composed of annexin V-FITC (fluorescein isothiocyanate), 1X binding buffer, and propidium iodide. Detection was conducted by measuring DNA content using a flow cytometer.

Assay [4] has the same test system. Put plainly: Annexin V-FITC/propidium iodide apoptosis detection, A549. The assay is classed as cell-based. As to the method:
as §3, §4

Assay [5] concerns leukemia cancer K562 cells. Put plainly: Flow cytometry of DNA content, cell cycle distribution, K562. In kind it is cell-based, human. The following applies: for %Pre-G1 (sub-G1) cells, cell cycle distribution: untreated control 1.68%; for %G2/M cells, cell cycle distribution: untreated control 12.59%; for %S cells, cell cycle distribution: untreated control 42.57%; for %G0-G1 cells, cell cycle distribution: untreated control 44.84%. On the procedure:
as §4
A general note: A flow cytometer gives signals particle by particle.

Assay [6] has as its system leukemia cancer K562 cells. Put plainly: Annexin V-FITC/propidium iodide apoptosis detection, K562. In kind it is cell-based, human. The following applies: for Late apoptosis: untreated control 0.04%; for Early apoptosis: untreated control 0.37%; for Necrosis: untreated control 1.27%; for Total cell death: untreated control 1.68%. As to the method: as §4

Take `COC(=O)C1=CCCN(C)C1` [Arecoline hydrobromide, reference compound]: the figures for the IC50 (in the assay with leukemia K562 cell line; in assay [1]) were 15.3 ± 1.08 µM and 11.7 ± 0.71 µM, respectively.
In the case of `CN1CCC(O)CC1` [Compound 1, 1-Methylpiperidin-4-ol], the “SI (Blood Cell), selectivity index” value in assay [2] (IC50 against normal PCS-800-016 divided by IC50 against K562) amounted to 6.32. In addition, in assay [2] (MTT, 48 h incubation), the IC50 was found to be 9.87 ± 0.49 µM. In the assay on normal lung cell WI38 (WI-38, MTT, 48 h incubation), the IC50 stood at 18.3 ± 0.91 µM. Further, the “SI (Lung), selectivity index” value with normal lung cell WI38 (IC50 against normal WI38 divided by IC50 against A549) is reported as 5.93. Also, the “Phase of cell cycle arrest” value in assay [3] is “G2/M phase”. Also, the “%Pre-G1 (sub-G1) cells, cell cycle distribution” value (shortened to “%Pre-G1 (sub-G1) cells”) in assay [3] (untreated control 1.26%) amounted to 28.61%. Moreover, in assay [3] (untreated control 8.09%), the “%G2/M cells, cell cycle distribution” value was 24.88%. Moreover, the “%S cells, cell cycle distribution” value in assay [3] (untreated control 35.85%) is given as 31.01%. For the same molecule, the “%G0-G1 cells, cell cycle distribution” value in assay [3] (untreated control 56.06%) was determined as 44.11%. Further, in assay [4] (A549, versus untreated cells), the “Fold increase of early apoptosis than control” value amounted to 17.55 fold, the “Fold increase of late apoptosis than control” value is recorded as 57.67 fold, the “Fold increase of necrosis than control” value was determined as 16.63 fold and the “Fold increase of total cell death than control” value stood at 22.71 fold. In assay [4] (A549, untreated control 0.18%), the Late apoptosis was found to be 10.38%. In assay [4] (A549, untreated control 0.29%), this molecule gave an Early apoptosis of 5.09%. This molecule displayed a Necrosis in assay [4] (A549, untreated control 0.79%) of 13.14%. In assay [4] (A549, untreated control 1.26%), this molecule registered a Total cell death of 28.61%. The IC50 in the assay with leukemia K562 cell line stood at 1.56 ± 0.11 µM. Besides, the half-maximal inhibitory concentration (IC50) in assay [1] worked out at 3.08 ± 0.19 µM.
On to `C[N+]1([O-])CCC(O)CC1` (stereo not drawn) [Compound 2, 4-Hydroxy-1-methylpiperidine 1-oxide], for which the IC50 (in the assay on leukemia K562 cell line; in assay [1]) was over 100 µM in each case.
For `O=C(O)C1CCCNC1` [Compound 3, D-piperidine-3-carboxylic acid], the IC50 in assay [2] (48 h) worked out at 37.9 ± 1.89 µM. Also, the IC50 with normal lung cell WI38 (WI-38, 48 h) came to 26.6 ± 1.33 µM. In addition, in assay [5], the “Phase of cell cycle arrest” value is given as “S phase”; the “%Pre-G1 (sub-G1) cells” value is listed as 43.22%; the “%G2/M cells, cell cycle distribution” value is reported as 7.48%; the “%S cells, cell cycle distribution” value was 57.23%. In addition, the “%G0-G1 cells, cell cycle distribution” value in assay [5] was 35.29%. Besides, in the assay on leukemia K562 cell line, the IC50 amounted to 3.33 ± 0.24 µM. In assay [1], the IC50 came to 7.33 ± 0.45 µM. In assay [6], this molecule had a Late apoptosis of 30.35%, an Early apoptosis of 2.33%, a Necrosis of 10.54% and a Total cell death of 43.22%.
Regarding `CN1CCC=C(C(=O)O)C1` [Compound 4, 1-Methyl-1,2,5,6-tetrahydropyridine-3-carboxylic acid], the IC50 was found to be 67.3 ± 0.53 µM with leukemia K562 cell line and 90.9 ± 0.59 µM in assay [1].
In the case of `O=C(O)c1cccnc1` [Compound 5, Pyridine-3-carboxylic acid], the IC50 in assay [2] (MTT, 48 h incubation) worked out at 20.2 ± 1.01 µM. Further, the half-inhibitory concentration (IC50) in the assay on normal lung cell WI38 (WI-38, MTT, 48 h incubation) was determined as 13.9 ± 0.69 µM. Besides, in assay [5], the “Phase of cell cycle arrest” value is “S phase”; the “%Pre-G1 (sub-G1) cells” value came out at 31.74%; the “%G2/M cells, cell cycle distribution” value amounted to 10.68%; the “%S cells, cell cycle distribution” value came to 52.91%. Moreover, the “%G0-G1 cells, cell cycle distribution” value in assay [5] came to 36.41%. Further, the IC50 in the assay with leukemia K562 cell line came to 2.15 ± 0.15 µM. Besides, in assay [1], the half-inhibitory concentration (IC50) worked out at 3.29 ± 0.2 µM. In assay [6], this molecule returned a Late apoptosis of 11.74%, an Early apoptosis of 2.94%, a Necrosis of 17.06% and a Total cell death of 31.74%.
With `COc1cccc2c1C(=O)c1c(O)c3c(c(O)c1C2=O)C[C@@](O)(C(=O)CO)C[C@@H]3O[C@H]1C[C@H](N)[C@H](O)[C@H](C)O1` [Doxorubicin, reference compound], the IC50 in the assay on leukemia K562 cell line worked out at 6.94 ± 0.21 µM; in assay [1] it was 5.05 ± 0.13 µM.
Consider `CN[C@@H]1C[C@H]2O[C@@](C)([C@@H]1OC)n1c3ccccc3c3c4c(c5c6ccccc6n2c5c31)C(=O)NC4` [Staurosporine, reference compound], for which the IC50 in the assay on leukemia K562 cell line is 5.07 ± 0.36 µM.

For orientation: IC50 means the concentration needed to halve the response being measured.
